The target in one series is NTR-1 (Homo sapiens, UniProt P30989). Put plainly: Competitive NTR-1 binding versus radiolabeled NT[8-13].
The target of series [1] is NTR-2 (Rattus norvegicus, UniProt Q63384). The settings on record: for Tmax (I.P.) of %MPE / MPE (I.P.): IP at 10 mg/kg; for MPE (I.P.): hotplate 52 C, cutoff 30 sec; for asterisk at peptide name: significant activity in the hotplate assay: Table 13; for MPE (oral) / Tmax (Oral) of %MPE: orally at 20 mg/kg. The protocol: Animals. […] (230-260 g) or Harlan, Prattville Ala.
NTR-2 (Rattus norvegicus, UniProt Q63384), sequence (Q63384 whole entry): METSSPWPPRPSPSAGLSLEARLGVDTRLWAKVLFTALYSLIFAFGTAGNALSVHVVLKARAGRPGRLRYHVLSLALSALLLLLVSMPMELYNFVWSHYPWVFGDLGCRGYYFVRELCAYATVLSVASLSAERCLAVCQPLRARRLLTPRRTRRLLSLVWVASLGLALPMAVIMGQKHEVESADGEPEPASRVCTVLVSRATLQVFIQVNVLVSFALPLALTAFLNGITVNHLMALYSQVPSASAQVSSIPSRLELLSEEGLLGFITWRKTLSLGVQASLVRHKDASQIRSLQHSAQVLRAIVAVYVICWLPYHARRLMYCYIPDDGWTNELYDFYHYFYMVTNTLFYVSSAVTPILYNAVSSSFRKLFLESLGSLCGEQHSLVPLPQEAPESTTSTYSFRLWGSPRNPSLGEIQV
The Hotplate Assay. The hotplate assay, a standard rat model for […] pain (see Le Bars et al., Pharmacol. Rev. 53: 597-652 (2001) and Chapman et al., Pain 22:1-31 (2002)), was performed as follows. A hotplate maintained at 52° C. to 53° C. was enclosed on four sides in a plexiglass chamber that extended 6 in. above the plate. Animals were placed on the plate, and the latency between the time a rat was placed on the surface and when it lifts or licks a back paw (indicative of pain sensation) was determined. Animals are removed immediately at the cutoff latency of 30 seconds. Assays are scored as the percent of maximal possible effect (% MPE) defined as 100%, which corresponds to the rats remaining on the hotplate for 30 seconds without responding. Thus, % MPE are calculated using the following equation: % MPE=[(post-drug latency-pre-drug latency)/(cut-off pre-drug latency)]×100%. N=6 or greater for all experiments.
Values for each set of experiments will be submitted to analysis of variance, with dose (vehicle and 5 levels) as the factor. […] An effect will be considered significant if p<0.05.
Tmax indicates the time after dosing in which a maximum response was observed.
Initial screens of all peptides included (1) evaluating their analgesic ability when dosed IP or orally (indicative of NTR-2 agonism) and (2) evaluating their ability to induce hypothermia when IP, a secondary effect of NTR-1 agonist activity.

Series [2] in a line: Acute toxicity, clinical observation and maximum tolerated dose in rats. Type of series: in vivo, rat. The protocol:
During the 2 and 24 hour post-dosing clinical observation periods, measurements of core body temperatures were taken.

The next series can be described thus: Formalin assay. The settings on record: morphine 5 mg/kg, approximately equimolar.
A further series in a line: Tail flick assay. The settings on record: ABS212 10 mg/kg, Morphine 5 mg/kg. A general note: Thermal pain tests record how soon the animal reacts.
For series [3], the target named is NTR-2 (Homo sapiens, UniProt O95665). Put plainly: Competitive NTR-2 binding versus radiolabeled NT[8-13].
NTR-2 (Homo sapiens, UniProt O95665), sequence (O95665 whole entry, species assumed): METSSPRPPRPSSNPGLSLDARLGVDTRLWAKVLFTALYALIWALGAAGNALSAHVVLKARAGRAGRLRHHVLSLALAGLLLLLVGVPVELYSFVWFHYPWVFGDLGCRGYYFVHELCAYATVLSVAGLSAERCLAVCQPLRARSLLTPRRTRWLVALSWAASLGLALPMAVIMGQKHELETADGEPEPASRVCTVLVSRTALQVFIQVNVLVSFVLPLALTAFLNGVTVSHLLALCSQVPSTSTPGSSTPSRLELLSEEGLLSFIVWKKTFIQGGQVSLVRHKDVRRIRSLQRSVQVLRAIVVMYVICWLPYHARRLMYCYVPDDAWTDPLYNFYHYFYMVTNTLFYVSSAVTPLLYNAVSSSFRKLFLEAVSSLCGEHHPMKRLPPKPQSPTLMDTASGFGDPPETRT
The nature of series [4]: d-Amphetamine induced hyperlocomotion and spontaneous locomotor activity. The series is classed as in vivo, rat. The settings on record: Table 11.
Description: This model operates on the assumption that the direct stimulation of DA receptors within the mesolimbic DA system is responsible for the locomotor response.
Sound- and light-attenuated locomotor cages are used to measure the ability of potential candidates to decrease d-amphetamine-induced hyperactivity.
d-Amphetamine induced hyperlocomotion. Experimentally I male Sprague-Dawley rats were housed as described above. Rats were handled for three days prior to testing to minimize experimenter induced hyperlocomotion on test day. For experiments, sound- and light-attenuated automated photocell beam activity chambers (AccuScan Instruments, Inc., Columbus, Ohio) were used to measure locomotion. Cages were connected to a VersaMax Analyzer (AccuScan) in conjunction with an IBM computer using VersaMax 1.80-0146 software (AccuScan) to record vertical and horizontal activity. Total activity values recorded were the sum of vertical and horizontal activity.
Each animal's activity was measured by how many times per minute the animal “trips” a photobeam in a computer-controlled photocell activity chamber (San Diego Instruments, San Diego, Calif.). […] Doses were assigned so that each was assessed in 12 chambers that were distributed over the apparatus, which controls for variations in lighting, etc. of the different chambers. […]
The conditions of series [5]: rat, in vivo.
Protocol: Cataleptic Analysis. In laboratory tests, catalepsy is characterized by the inability of an animal to correct its position after placement in an unnatural posture. […] To circumvent these potential confounding factors, tests are performed on an animal only once in a quiet, controlled environment.
Catalepsy Assessment. […] Rats were given an IP injection of peptide (5 mg/Kg), saline, or haloperidol (1 mg/kg). After 3 hours, catalepsy was measured using the horizontal bar test. Briefly, the front paws were placed directly on a horizontal bar 5 mm in diameter placed 7.5 cm above the cage floor. The rat was held in this position for 3 sec and then released. The time from release until the paws return to the cage floor was measured and recorded. A cut-off time of 30 sec was observed; this indicated a fully cataleptic animal as cataleptic animals are frozen to the bar. […] Measures were repeated every 30 min for 4 hr. Data are means±SEM (p<0.01).
After 2 h, catalepsy was measured using the horizontal bar test. Data are means±SEM (p<0.01).
A short description of the next series: in vitro. The settings on record: plasma.
Series [6] can be described thus: Pharmacokinetics of ABS212 in Sprague-Dawley rats. The series is classed as in vivo, rat. The conditions noted are these: for Vd: read-out: volume of distribution at terminal phase; for half-life: read-out: half-life (T1/2) (converted); for clearance: read-out: systemic clearance (converted). An excerpt:
These samples were used for the determination of plasma parent drug concentrations by LC/MS/MS for estimating pharmacokinetic parameters and oral bioavailability.

Where [7] appears, read: Sprague-Dawley, rat, plasma, IV bolus 1 mg/kg.
The mark [8] stands for this setting: Sprague-Dawley, rat, plasma, IV bolus 2.5 mg/kg.
Where [9] appears, read: Sprague-Dawley, rat, plasma, IV bolus 5 mg/kg.
Where [10] appears, read: Sprague-Dawley, rat, plasma, oral 50 mg/kg.

Structures can show the parent of a compound that is named as a salt. Where two headings read alike, the source gives them in different places. Marks after values point to notes of the source that are not given here. Where a SMILES comes first, the peptide text is derived from it. [ ]: non-standard residue; d: D form. The star is where a group is joined. X4 = [N-]=[N+]=N[C@@H](CCCCCN)C(=O)*; X2 = C[C@@H](CCC[N+](C)(C)C)C(=O)*; Tle = CC(C)(C)[C@H](N)C(=O)O; X1 = C[C@@H](CCCCCN)C(=O)*

NTR-1, sequence (P30989 whole entry, species assumed): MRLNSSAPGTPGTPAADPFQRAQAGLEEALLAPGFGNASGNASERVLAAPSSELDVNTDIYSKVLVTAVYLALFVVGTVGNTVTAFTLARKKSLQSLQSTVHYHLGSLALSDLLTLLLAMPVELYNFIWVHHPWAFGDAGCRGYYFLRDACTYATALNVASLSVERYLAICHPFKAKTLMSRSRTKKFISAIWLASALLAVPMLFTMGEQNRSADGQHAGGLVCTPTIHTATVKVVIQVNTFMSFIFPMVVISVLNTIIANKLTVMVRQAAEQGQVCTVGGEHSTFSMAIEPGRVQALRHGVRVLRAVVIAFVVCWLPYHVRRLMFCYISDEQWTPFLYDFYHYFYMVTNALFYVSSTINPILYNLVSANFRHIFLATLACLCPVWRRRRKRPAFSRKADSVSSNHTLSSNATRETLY

With X-Arg-Pro-Tyr-isoleu-Leu [ABS19], the EC50 on NTR-1 (competitive binding, Table 12, read-out: NTR-1) came to 1.2 ± 0.7 nM.
Consider Arg-Arg-Pro-Tyr-t-Leu-Leu [ABS237], for which the “Tmax (I.P.) of %MPE” value on NTR-2 [1] was found to be 30. Also, the “MPE (I.P.)” value on NTR-2 [1] (10 mg/kg) came out at 50%.
As for Lys-Arg-Pro-Tyr-t-Leu-Leu [ABS229], on NTR-2 [1] (10 mg/kg), the “Tmax (I.P.) of %MPE” value is listed as 60 and the “MPE (I.P.)” value was determined as 48%.
Take Lys-Arg-Pro-Tyr-t-Leu-Leu [ABS205]: on NTR-2 [1] (10 mg/kg), the “Tmax (I.P.) of %MPE” value is 15-30 and the “MPE (I.P.)” value stood at 86%. Besides, at NTR-2 [1], the “asterisk at peptide name: significant activity in the hotplate assay” value is reported as “ABS205*” and the “Tmax (Oral) of %MPE” value turned out to be 30. Moreover, at NTR-2 [1] (hotplate), the “MPE (oral)” value came out at 66%.
Take Boc-Arg-Pro-Tyr-t-Leu-Leu [ABS700]: at NTR-2 [1], the “Tmax (I.P.) of %MPE” value is 90 and the “MPE (I.P.)” value worked out at 51%.
For `CC(C)C[C@H](NC(=O)[C@@H](NC(=O)[C@H](Cc1ccc(O)cc1)NC(=O)[C@@H]1CCCN1C(=O)[C@H](CCCNC(=N)N)NC(=O)[C@@H](C)CCCCCN)C(C)(C)C)C(=O)O` [ABS201 HCl] (X1-RPY[Tle]L-OH), in series [2] (50 mg/kg IV), the “clinical observation 2 hour post-dosing” value is “all animals appeared grossly normal although marked hypothermia was present” and the “clinical observation 24 hour post-dosing” value was “all animals appeared grossly normal; hypothermia was absent”. The “acute behaviour during intravenous dosing” value in series [2] (50 mg/kg IV, slow push via tail vein) was “noticeably sedate”. The “clinical observation after oral dosing” value in series [2] (250 mg/kg PO) was “appeared grossly normal at all time points”.
Turning to `CC[C@H](C)[C@H](NC(=O)[C@H](Cc1ccc(O)cc1)NC(=O)[C@@H]1CCCN1C(=O)[C@H](CCCNC(=N)N)NC(=O)[C@H](CCCNC(=N)NC)N=[N+]=[N-])C(=O)N[C@@H](CC(C)C)C(=O)O` [ABS16, X-Arg-Pro-Tyr-isoleu-Leu], on NTR-1, the EC50 turned out to be 0.3 ± 0.05 nM.
Take `CN1CC[C@]23c4c5ccc(O)c4O[C@H]2[C@@H](O)C=C[C@H]3[C@H]1C5` [Morphine, reference compound]: the “duration of activity of morphine” value in “Formalin assay” is given as “loses activity after 30 minutes”. In addition, in the series “Tail flick assay”, the “MPE (0 min)” value was 0.03 +/− 0.05, the “MPE (30 min)” value is 63.7 +/− 41.9 and the “MPE (60 min)” value is recorded as 67.5 +/− 25.8.
Turning to `CC(C)C[C@H](NC(=O)[C@@H](NC(=O)[C@H](Cc1ccc(O)cc1)NC(=O)[C@@H]1CCCN1C(=O)[C@H](CCCNC(=N)N)NC(=O)[C@H](CCCCCN)N=[N+]=[N-])C(C)(C)C)C(=O)O` [ABS13, N3-L-homolysine-Arg-Pro-Tyr-tertLeu-Leu-COOH] (X4-RPY[Tle]L-OH), the results for the EC50 on NTR-1 and at NTR-2 [3] were 5.7 ± 0.37 nM and 11.1 ± 0.1 nM, respectively.
Consider `CC[C@H](C)[C@H](NC(=O)[C@H](Cc1ccc(O)cc1)NC(=O)[C@@H]1CCCN1C(=O)[C@H](CCCNC(=N)N)NC(=O)[C@H](CCCNC(=N)N)N=[N+]=[N-])C(=O)N[C@@H](CC(C)C)C(=O)O` [ABS15, X-Arg-Pro-Tyr-isoleu-Leu], for which the EC50 on NTR-1 was 0.4 ± 0.1 nM; on NTR-2 [3], 0.9 ± 0.2 nM. At NTR-2 [3] (Table 12), this compound returned an NTR-1/NTR-2 selectivity of 2.5.
As for Orn-Arg-Pro-Tyr-t-Leu-Leu [ABS233], at NTR-2 [1] (10 mg/kg), the “Tmax (I.P.) of %MPE” value was 45 and the “MPE (I.P.)” value is given as 51%.
With 1-Arg-Pro-Tyr-t-Leu-Leu [ABS202], on NTR-2 [1] (10 mg/kg), the “Tmax (I.P.) of %MPE” value is recorded as 30-75 and the “MPE (I.P.)” value was 100%. In addition, at NTR-2 [1], the “asterisk at peptide name: significant activity in the hotplate assay” value is “ABS202*”. The “% MPE” value at NTR-2 [1] (hotplate 52° C., cutoff 30 seconds, Table 10) is 100%. Besides, on NTR-2 [1] (hotplate, Table 10), the “% MPE (tmax, min)” value stood at 45 min. Besides, at NTR-2 [1] (hotplate, 20 mg/kg), the “MPE (oral)” value came to 52%. For the same compound, the “Tmax (Oral) of %MPE” value at NTR-2 [1] (20 mg/kg) is 45.
As to `CC[C@H](C)[C@H](NC(=O)[C@H](Cc1ccc(O)cc1)NC(=O)[C@@H]1CCCN1C(=O)[C@H](CCCNC(=N)N)NC(=O)[C@@H](N)CCCNC(=N)N)C(=O)N[C@@H](CC(C)C)C(=O)O` [NT(8-13), NH2-Arg-Arg-Pro-Tyr-Ile-Leu-COOH], in series [4], the “Hyperlocomotion Inhibition (active routes)” value was “CNS administration” and the “Inhibits locomotor activity (active routes)” value was “CNS administration”. In addition, in series [5], the Catalepsy result is reported as “No”. In “in vitro”, this compound gave a half-life of 5 min.
One may read the clearance as the rate of elimination divided by the concentration. A word on the AUC(0-inf): it is total exposure, with the tail of the curve extrapolated. High values mean high exposure, low ones low exposure. In general, Cmax refers to the peak of the concentration-time curve. What is called Tmax is the time from dosing to the highest level. By bioavailability is commonly meant dose-corrected exposure relative to a reference, in per cent. A higher bioavailability goes with good availability. Regarding `CC(C)C[C@H](NC(=O)[C@@H](NC(=O)[C@H](Cc1ccc(O)cc1)NC(=O)[C@@H]1CCCN1C(=O)[C@H](CCCNC(=N)N)NC(=O)[C@@H](C)CCC[N+](C)(C)C)C(C)(C)C)C(=O)O` [ABS-212.2HCL] (X2-RPY[Tle]L-OH), the “clearance as % of rat hepatic blood flow (3.31 L/hr/kg)” value in [6] (IV bolus 1 mg/kg) turned out to be 32.33%; in series [6] (IV bolus 5 mg/kg), 12.08%; in series [6] (IV bolus […]) it was 12.08%. Besides, the Vd amounted to 0.43 ± 0.15 L/kg in [6] (Sprague-Dawley, rat, plasma, IV 1 mg/kg); 0.15 ± 0.01 L/kg in series [6] (Sprague-Dawley, rat, plasma, IV 2.5 mg/kg); 0.16 ± 0.06 L/kg in series [6] (Sprague-Dawley, rat, plasma, IV 5 mg/kg). In addition, the half-life in series [6] (setting [7]) is 16.8 ± 4.8 min; in [6] (setting [8]) it was 16.8 ± 6.6 min; in [6] (setting [9]), 17.4 ± 7.8 min; in series [6] (setting [10]) it was 85.2 ± 52.2 min. Further, the clearance is 17.8 mL/min/kg in series [6] (setting [7]), 6.67 mL/min/kg in series [6] (setting [8]) and 6.67 mL/min/kg in [6] (setting [9]). In series [6] (setting [10]), the AUC(0-inf) was found to be 53.1 ± 39.6 ng·h/mL. In addition, the Cmax in series [6] (setting [10]) was 27.1 ± 11.6 ng/mL. Further, in series [6] (setting [10]), the Tmax is 8.4 ± 3 min. Also, the bioavailability in series [6] (Sprague-Dawley, rat, plasma, oral 50 mg/kg, 1 mg/kg group as IV dose data) was determined as 0.11 ± 0.08%.
At NTR-1, `CCNC(=N)NCCC[C@H](N=[N+]=[N-])C(=O)N[C@@H](CCCNC(=N)N)C(=O)N1CCC[C@H]1C(=O)N[C@@H](Cc1ccc(O)cc1)C(=O)N[C@H](C(=O)N[C@@H](CC(C)C)C(=O)O)[C@@H](C)CC` [ABS17, X-Arg-Pro-Tyr-isoleu-Leu] returned an EC50 of 0.25 ± 0.07 nM.
Regarding hLys-Arg-Pro-Tyr-t-Leu-Leu [ABS225], at NTR-2 [1], the “Tmax (I.P.) of %MPE” value is listed as 15-45, the “asterisk at peptide name: significant activity in the hotplate assay” value is recorded as “ABS225*”, the “MPE (I.P.)” value was found to be 100% and the “Tmax (Oral) of %MPE” value is 30. Moreover, the “MPE (oral)” value at NTR-2 [1] (hotplate) worked out at 38%.
Consider Orn-Arg-Pro-Tyr-t-Leu-Leu [ABS209], for which, on NTR-2 [1] (10 mg/kg), the “Tmax (I.P.) of %MPE” value worked out at 60 and the “MPE (I.P.)” value was 89%.
Consider Arg-Arg-Pro-Tyr-t-Leu-Leu [ABS213], for which the “Tmax (I.P.) of %MPE” value at NTR-2 [1] came to 30. Moreover, the “MPE (I.P.)” value at NTR-2 [1] (10 mg/kg) worked out at 48%.

For the origin of these results see patent publication US20080234202A1, “Non-natural amino acids and neurotensin analogues” (priority 2004, published 2008).
